Test results as given in patent US11980689B2 (AVALYN PHARMA INC., priority 2013, dated 2024).
Where a name gives a salt, the structure may show the parent alone.

What was measured:
[1] = test system: bleomycin-induced pulmonary fibrosis; details: both agents from Days 14; cited from earlier work
lung fibroblasts = details: 800 μg/ml of AGP, in vitro; cited from earlier work
[2] = test system: sol elastase of CF sputum; details: unprocessed CF sputum directly treated; cited from earlier work
[3] = intravenous; cited from earlier work
[4] = test system: relapsed/refractory multiple myeloma; details: cited from earlier work
[5] = target: T1, purified human neutrophil elastase (Homo sapiens, UniProt P08246); details: cited from earlier work
T1 sequence (P08246 30-247 limits assumed): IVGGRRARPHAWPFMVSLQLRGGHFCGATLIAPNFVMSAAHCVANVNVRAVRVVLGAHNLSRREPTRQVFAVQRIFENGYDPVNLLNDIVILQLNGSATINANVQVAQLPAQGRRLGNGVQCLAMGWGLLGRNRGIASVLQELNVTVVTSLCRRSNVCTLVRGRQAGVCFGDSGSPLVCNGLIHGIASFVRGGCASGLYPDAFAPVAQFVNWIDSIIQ

newly diagnosed CML = details: cytogenetic and haematological response, time to progression; cited from earlier work
[6] = test system: COL1A1-PDGFβ-transformed fibroblasts, DFSP and giant-cell fibrosarcoma cell cultures; details: in vitro and in vivo; cited from earlier work
[7] = test system: primary human fibroblasts; assay: PDGF-induced fibroblast proliferation (MTS assay); details: for Proliferation (relative proliferation), Short Duration / Proliferation (relative proliferation), Long Duration: 20 ng/mL PDGF-BB, 72 hours, MTS; for inhibiting PDGF-induced fibroblast proliferation (in words) / cytotoxicity of drug concentrations tested: 0.5 to 50 nM; for cytotoxicity of drug concentrations tested: data not shown; for IC50: read-out: fifty-percent inhibitory concentration (IC50), PDGF-induced fibroblast proliferation, short-term exposure
cancer = details: cited from earlier work
c-kit = c-kit (Homo sapiens, UniProt P10721); details: cited from earlier work
c-kit, sequence (P10721 26-976): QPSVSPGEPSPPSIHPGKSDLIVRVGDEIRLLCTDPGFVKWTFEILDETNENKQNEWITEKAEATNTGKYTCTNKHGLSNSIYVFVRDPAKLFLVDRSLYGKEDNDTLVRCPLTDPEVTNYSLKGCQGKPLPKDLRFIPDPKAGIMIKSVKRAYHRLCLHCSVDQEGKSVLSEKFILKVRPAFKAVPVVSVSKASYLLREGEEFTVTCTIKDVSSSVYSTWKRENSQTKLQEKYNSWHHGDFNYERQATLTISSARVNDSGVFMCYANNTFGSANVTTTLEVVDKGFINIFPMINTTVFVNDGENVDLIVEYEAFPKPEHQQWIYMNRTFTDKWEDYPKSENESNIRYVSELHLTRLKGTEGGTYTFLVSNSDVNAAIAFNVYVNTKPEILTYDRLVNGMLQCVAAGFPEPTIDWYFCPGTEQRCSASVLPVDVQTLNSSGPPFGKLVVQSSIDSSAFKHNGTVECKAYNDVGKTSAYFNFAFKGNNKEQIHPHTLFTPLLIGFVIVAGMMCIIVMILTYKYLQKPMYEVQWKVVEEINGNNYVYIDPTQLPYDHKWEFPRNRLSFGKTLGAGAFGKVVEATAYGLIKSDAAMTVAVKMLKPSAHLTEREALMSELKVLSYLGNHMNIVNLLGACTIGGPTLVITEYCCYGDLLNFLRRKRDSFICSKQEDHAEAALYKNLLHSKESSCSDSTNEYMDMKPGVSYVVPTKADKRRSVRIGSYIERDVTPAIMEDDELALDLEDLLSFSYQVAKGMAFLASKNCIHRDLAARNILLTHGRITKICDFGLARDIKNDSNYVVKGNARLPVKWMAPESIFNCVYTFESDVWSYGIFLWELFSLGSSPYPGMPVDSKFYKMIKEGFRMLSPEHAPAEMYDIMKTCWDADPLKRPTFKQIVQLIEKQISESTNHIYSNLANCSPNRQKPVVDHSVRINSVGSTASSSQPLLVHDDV

SCLC = details: oral 600 mg daily up to 12 months; cited from earlier work
[8] = bortezomib 1.3 mg/m2 vs high-dose dexamethasone
[9] = 0.5 nM drug 30 min pretreatment then washed
[10] = 5.0 nM drug 30 min pretreatment then washed
[11] = 50.0 nM drug 30 min pretreatment then washed

CC[C@H]1OC(=O)[C@H](C)[C@@H](O[C@H]2C[C@@](C)(OC)[C@@H](O)[C@H](C)O2)[C@H](C)[C@@H](O[C@@H]2O[C@H](C)C[C@H](N(C)C)[C@H]2O)[C@](C)(OC)C[C@@H](C)C(=O)[C@H](C)[C@@H](O)[C@]1(C)O [clarithromycin]
bleomycin-induced pulmonary fibrosis, combined use with imatinib [1]: attenuated
concentration required to abrogate the effects of AGP (lung fibroblasts): > 10 µM

DNase
increase of sol elastase activity [2]: 190%

CC(C)C[C@H](NC(=O)[C@H](Cc1ccccc1)NC(=O)c1cnccn1)B(O)O [Bortezomib]
clearance [3]: rapidly cleared
time to peak concentrations [3]: about 30 minutes
1-year survival [4, 8]: 80%
median TTP [4, 8]: 6.2 months
patients with peripheral neuropathy ([4]; human, in vivo): 30%

O=C(O)CCCC[C@@H](S)CCS (racemic) [DHLA, dihydrolipoic acid]
inhibition of purified human neutrophil elastase (in words) [5]: inhibited
increase of sol elastase activity [2]: did not increase

CC[C@H]1OC(=O)[C@H](C)[C@@H](O[C@H]2C[C@@](C)(OC)[C@@H](O)[C@H](C)O2)[C@H](C)[C@@H](O[C@@H]2O[C@H](C)C[C@H](N(C)C)[C@H]2O)[C@](C)(O)C[C@@H](C)C(=O)[C@H](C)[C@@H](O)[C@]1(C)O [erythromycin]
bleomycin-induced pulmonary fibrosis, combined use with imatinib [1]: attenuated
concentration required to abrogate the effects of AGP (lung fibroblasts): more than 1 μM

Cc1ccc(NC(=O)c2ccc(CN3CCN(C)CC3)cc2)cc1Nc1nccc(-c2cccnc2)n1 [Glivec]
efficacy vs interferon and low-dose cytarabine (newly diagnosed CML): superior efficacy
effect on cells [6]: inhibited

COC(=O)c1ccc2c(c1)NC(=O)/C2=C(\Nc1ccc(N(C)C(=O)CN2CCN(C)CC2)cc1)c1ccccc1 [Vargatef]
Proliferation (relative proliferation), Short Duration [7, 9]: 0.115
Proliferation (relative proliferation), Long Duration ([7]; 0.5 nM drug kept in media): 0.003
Proliferation (relative proliferation), Short Duration [7, 10]: 0.011
Proliferation (relative proliferation), Long Duration ([7]; 5.0 nM drug kept in media): −0.359
Proliferation (relative proliferation), Short Duration [7, 11]: −0.175
Proliferation (relative proliferation), Long Duration ([7]; 50.0 nM drug kept in media): −0.642
inhibiting PDGF-induced fibroblast proliferation (in words) [7]: dose-responsive
cytotoxicity of drug concentrations tested [7]: not cytotoxic
IC50 [7]: ~3 nM

CNC(=O)c1cc(Oc2ccc(NC(=O)Nc3ccc(Cl)c(C(F)(F)F)c3)cc2)ccn1 [Sorafinib, sorafinib]
Proliferation (relative proliferation), Short Duration [7, 9]: 0.117
Proliferation (relative proliferation), Long Duration ([7]; 0.5 nM drug kept in media): 0.313
Proliferation (relative proliferation), Short Duration [7, 10]: −0.010
Proliferation (relative proliferation), Long Duration ([7]; 5.0 nM drug kept in media): 0.175
Proliferation (relative proliferation), Short Duration [7, 11]: −0.147
Proliferation (relative proliferation), Long Duration ([7]; 50.0 nM drug kept in media): 0.130
inhibiting PDGF-induced fibroblast proliferation (in words) [7]: dose-responsive
cytotoxicity of drug concentrations tested [7]: not cytotoxic
IC50 [7]: ~30 nM

N#CC1(c2ccc(NC(=O)c3cccnc3NCc3ccncc3)cc2)CCCC1 [Apatinib]
dose limiting toxicities (cancer; 1000 mg/day): 3 of 3
complete response (cancer; 65 cancer patients, Phase I/II): 1.54%
partial response (cancer; 65 cancer patients, Phase I/II): 12.31%
progressive disease (cancer; 65 cancer patients, Phase I/II): 20%
stable disease (cancer; 65 cancer patients, Phase I/II): 66.15%
maximum tolerated dose (cancer; human, in vivo): 850 mg/day

Cc1ccc(NC(=O)c2ccc(CN3CCN(C)CC3)cc2)cc1Nc1nccc(-c2cccnc2)n1 [imatinib mesylate]
signal transduction cascade triggered by c-kit activation (c-kit): sufficiently blocked
antitumor activity (SCLC): no observed antitumor activity

B1: reduced rhTrx: stable reduced form of recombinant human thioredoxin used as a single component (protein, UniProt P10599 2-105, looked up)
Thioredoxin: VKQIESKTAFQEALDAAGDKLVVVDFSATWCGPCKMIKPFFHSLSEKYSNVIFLEVDVDDCQDVASECEVKCMPTFQFFKKGQKVGEFSGANKEKLEATINELV
modifications: reduced form
inhibition of purified human neutrophil elastase (in words) [5]: inhibited
increase of sol elastase activity [2]: 60%
